Several values for one entry are separate records, joined by “and”; a condition that tells them apart may be missing. Identical values can stand only once.

Assay type in all cases: in vivo, human
For assay [1], the system named is sweet sensitive taste panel. The assay can be described thus: Sweetness ranking against sucrose solutions to determine sucrose equivalence. An excerpt:
The term “sucrose equivalence” refers to the equivalence in sweetness of a composition containing at least one non-sucrose sweetener to a reference sucrose solution. Typically, taste panellists are trained to detect sweetness of reference sucrose solutions containing between 1% and 15% sucrose (w/v). Other non-sucrose sweeteners may then be tasted at a series of dilutions to determine the concentration of the non-sucrose sweetener that is as sweet (i.e. isosweet) to a given sucrose reference. The term “isosweet” refers to compositions that have equivalent sweetness. Typically, the sweetness of a given composition is measured with reference to a solution of sucrose. See “A Systematic Study of Concentration-Response Relationships of Sweeteners,” G. E. DuBois, D. E. Walters, S. S. Schiffman, Z. S. Warwick, B. J. Booth, S. D. Pecore, K. Gibes, B. T. Carr, and L. M. Brands, in Sweeteners: Discovery, Molecular Design and Chemoreception, D. E. Walters, F. T. Orthoefer, and G. E. DuBois, Eds., American Chemical Society, Washington, D.C. (1991), pp 261-276.
A sweet sensitive taste panel ranked the sweetness of solutions of a mixture of sweeteners (“Mixture 1”) in relation to sucrose solutions at a range of concentrations to determine sucrose equivalence. Mixture 1 was a combination of fractions 11 to 18 of Example 2 and contained 8.16 wt % 11-O-mogroside V and 61.6 wt % mogroside V. The results are shown in Table 6 below.
A sweet sensitive taste panel ranked the sweetness of solutions of various sweeteners (mogroside V, mogroside IV, siamenoside, neomogroside, 11-O-mogroside V) in relation to sucrose solutions at a range of concentrations to determine sucrose equivalence. The sweeteners were obtained using an Agilent 1100 preparative HPLC system with a Phenomenex Luna C18 (2) column (5 μm, 210×21.4 mm).

The test system of assay [2] is expert panel of three people (trained flavourists). The experiment in a line: Descriptive taste test in 5% sucrose and 0.03% citric acid compared to Luo Han Guo extract. Conditions: for Taste description: added to 5% sucrose and 0.03% citric acid; for Sweet quality compared to Luo Han Guo extract: in 5% sucrose and 0.03% citric acid. How it is done:
The taste of various concentrations of mixture 1 was tested by an expert panel of three people (trained flavourists) in solutions containing 5% sucrose and 0.03% citric acid. The taste was compared to the Luo Han Guo extract used in Example 2 (obtained from Azile LCC (Rolling Hills Est, California) (extract 1 of Example 1 above) and containing about 68 wt % mogrosides) (combined with the same 5% sucrose and 0.03% citric acid solution).
The taste of these sweeteners was tested by an expert panel of three people (trained flavourists) in solutions containing 5% sucrose and 0.03% citric acid. The taste was compared to the Luo Han Guo extract used in Example 2 (obtained from Azile LCC (Rolling Hills Est, California) (extract 1 of Example 1 above) and containing about 68 wt % mogrosides).

Assay [3] has as its system sweet sensitive taste panel. The assay can be described thus: Sweetness enhancement: sweetener added to 5% (w/v) sucrose, ranked against 5, 6, 6.5 and 7% (w/v) sucrose solutions. Conditions: for Average Score: ranked against 5, 6, 6.5 and 7% sucrose; for Sweetness enhancer effect: increase in sweetness of 5% (w/v) sucrose greater than sweetness of the sweetener alone. How it is done:
This solution was then ranked against 5, 6, 6.5 and 7% (w/v) sucrose solutions. This was repeated for 45 ppm Luo Han Guo extract. The average score of each solution was determined. […] These solutions were then ranked against 5, 6, 6.5 and 7% (w/v) sucrose solutions. The average score of each solution was determined.

The subject of assay [4] is expert panel of seven people. The assay can be described thus: Scoring of sweet taste aspects versus base solution (5% sucrose and 0.03% citric acid). The note with it: for Astringent, average score / Lingering Sweet, average score / Overall Sweet, average score / Upfront Sweet, average score / Volatile Off-Note, average score: score versus base, 0 same, 3 much higher, −3 much lower.

The subject of assay [5] is Four sweet sensitive panelists. The assay can be described thus: Iso-sweet potency versus standard sucrose solutions. The protocol:
10 mg iso-mogroside VI (FIG. 7) was dissolved in […] water to make 100 ppm iso-mogroside VI solution. The working solution of 11-epi-mogroside V (FIG. 8) was 374 ppm (9.34 mg 11-epi-mogroside V in 25 mL water), A series of standard sucrose solutions were prepared (0.50, 0.75, 1.00, 1.25, 1.50%) as sweetness references.
Four sweet sensitive panelists evaluated 100 ppm iso-mogroside VI and 374 ppm 11-epi-mogroside V and the sucrose standards, and were asked to give sweet equivalence concentrations to sucrose. The mean sweet equivalence concentrations of each compound were used to calculate the iso-sweet potency.

As to `C[C@H](CC[C@@H](O[C@@H]1O[C@H](CO[C@H]2O[C@H](CO)[C@H](O)[C@H](O)[C@H]2O)[C@@H](O)[C@H](O)[C@H]1O[C@@H]1O[C@H](CO)[C@@H](O)[C@H](O)[C@H]1O)C(C)(C)O)[C@H]1CC[C@@]2(C)[C@H]3CC=C4[C@@H](CC[C@H](O[C@@H]5O[C@H](CO[C@@H]6O[C@H](CO)[C@@H](O)[C@H](O)[C@H]6OC6O[C@H](CO)[C@@H](O)[C@H](O)[C@H]6O)[C@@H](O)[C@H](O)[C@H]5O)C4(C)C)[C@]3(C)[C@H](O)C[C@]12C` (stereo partly drawn) [Neomogroside], the “Total of sweetness ranks” value in assay [1] (Table 13, 25 ppm Neomogroside, 9 panelists) turned out to be 16. In addition, the “Total of sweetness ranks” value in assay [1] (Table 13, 30 ppm Neomogroside, 9 panelists) was found to be 29. In assay [2], the Taste description result is “sweetness, but slightly bitter aftertaste” and the “Sweet quality compared to Luo Han Guo extract” value was “better than Luo Han Guo extract in terms of sweet quality”. Also, the “Average Score” value in assay [3] (30 ppm in 5% (w/v) sucrose) was 6.35. The Sweetness enhancer effect result in assay [3] is “act as sweetness enhancers”. Moreover, in assay [4] (Table 16, 30 ppm), the “Astringent, average score” value is recorded as 0; the “Lingering Sweet, average score” value is on record as 0.4; the “Overall Sweet, average score” value turned out to be 1.4; the “Upfront Sweet, average score” value is given as 1. Further, in assay [4] (Table 16, 30 ppm), the “Volatile Off-Note, average score” value is 0.
For the compound “3-O-β-D-glucopyranosyl(1→6)-β-D-glucopyranosyl-mogrol-24-O-β-D-glucopyranosyl-(1→6-[β-D-glucopyranosyl-(1→4)-β-D-glucopyranosyl-(1→2)]-β-D-glucopyranosyl [iso-mogroside VI]”, the “Sweet equivalence concentration to sucrose” value in assay [5] (100 ppm in water) was 0.91 % sucrose. For the same compound, in assay [5] (calculated from mean sweet equivalence concentrations), the Iso-sweet potency is reported as 91 times of sweetness of sucrose. In addition, the Comments result in assay [4] (Table 20, 25 ppm in 5% sucrose and 0.03% citric acid) is “Slightly acidic”. Also, in assay [4] (Table 20, 25 ppm), the “Astringent, average score” value amounted to 0; the “Lingering Sweet, average score” value was found to be 0.2; the “Overall Sweet, average score” value turned out to be 0.2; the “Upfront Sweet, average score” value is listed as 0.2. Besides, the “Volatile Off-Note, average score” value in assay [4] (Table 20, 25 ppm) is listed as 0.
With `C[C@H](CC[C@@H](O[C@@H]1O[C@H](CO[C@@H]2O[C@H](CO)[C@@H](O)[C@H](O)[C@H]2O)[C@@H](O)[C@H](O)[C@H]1O[C@@H]1O[C@H](CO)[C@@H](O)[C@H](O)[C@H]1O)C(C)(C)O)[C@H]1CC[C@@]2(C)[C@H]3CC=C4[C@@H](CC[C@H](O[C@@H]5O[C@H](CO)[C@@H](O)[C@H](O)[C@H]5O)C4(C)C)[C@]3(C)[C@H](O)C[C@]12C` [Siamenoside], in assay [1] (Table 11, Siamenoside 20 ppm, 7 panelists), the “Total of sweetness ranks” value turned out to be 19. Further, the “Sweetness rank by panelist” value in assay [1] (Table 11, Siamenoside 25 ppm) is 2 and 3 and 4. The “Total of sweetness ranks” value in assay [1] (Table 11, Siamenoside 25 ppm, 7 panelists) is on record as 19. Also, in assay [2], the Taste description entry is “more sweet body, sweeter, rounder with a little more upfront and more round lasting sweet”; the “Sweet quality compared to Luo Han Guo extract” value was “better than Luo Han Guo extract in terms of sweet quality”. The “Average Score” value in assay [3] (25 ppm in 5% (w/v) sucrose) was 6.4. Moreover, the Sweetness enhancer effect result in assay [3] is on record as “act as sweetness enhancers”. In assay [4] (Table 16, 25 ppm), the “Astringent, average score” value is 0.4; the “Lingering Sweet, average score” value is given as 0.6; the “Overall Sweet, average score” value is given as 1.8; the “Upfront Sweet, average score” value is given as 1.4. Also, the “Volatile Off-Note, average score” value in assay [4] (Table 16, 25 ppm) amounted to 0.2.
`C[C@H](CC[C@@H](O[C@@H]1O[C@H](CO)[C@@H](O)[C@H](O)[C@H]1O[C@@H]1O[C@H](CO)[C@@H](O)[C@H](O)[C@H]1O)C(C)(C)O)[C@H]1CC[C@@]2(C)[C@H]3CC=C4[C@@H](CC[C@H](O[C@@H]5O[C@H](CO[C@@H]6O[C@H](CO)[C@@H](O)[C@H](O)[C@H]6O)[C@@H](O)[C@H](O)[C@H]5O)C4(C)C)[C@]3(C)[C@H](O)C[C@]12C` [Mogroside IV]: in assay [1] (Table 10, 25 ppm Mogroside IV, 7 panelists), the “Total of sweetness ranks” value is recorded as 13. Besides, the “Total of sweetness ranks” value in assay [1] (Table 10, 30 ppm Mogroside IV, 7 panelists) is recorded as 20. In assay [2], the Taste description entry is “good and similar sweetness as mogroside V”; the “Sweet quality compared to Luo Han Guo extract” value was “better than Luo Han Guo extract in terms of sweet quality”. Moreover, in assay [3] (30 ppm in 5% (w/v) sucrose), the “Average Score” value is reported as 6.2. Also, in assay [4] (Table 16, 30 ppm), the “Astringent, average score” value was determined as 0; the “Lingering Sweet, average score” value is on record as 0; the “Overall Sweet, average score” value stood at 0.4; the “Upfront Sweet, average score” value turned out to be 0.4. The “Volatile Off-Note, average score” value in assay [4] (Table 16, 30 ppm) was determined as 0.
Turning to `OC[C@H]1O[C@@](CO)(O[C@H]2O[C@H](CO)[C@@H](O)[C@H](O)[C@H]2O)[C@@H](O)[C@@H]1O` [Sucrose], the “Total of sweetness ranks” value was 33 in assay [1] (Table 6, 1% Sucrose reference, 10 panelists); 47 in assay [1] (Table 6, 1.5% Sucrose reference, 10 panelists); 8 in assay [1] (Table 9, 0.5% Sucrose reference, 6 panelists); 19 in assay [1] (Table 9, 1% Sucrose reference, 6 panelists); 29 in assay [1] (Table 9, 1.5% Sucrose reference, 6 panelists); 14 in assay [1] (Table 10, Sucrose 0.5% reference, 7 panelists). In addition, the “Total of sweetness ranks” value in assay [1] (Table 10, Sucrose 1% reference, 7 panelists) was 23; in assay [1] (Table 10, Sucrose 1.5% reference, 7 panelists), 35; in assay [1] (Table 11, Sucrose 0.5% reference, 7 panelists) it was 8; in assay [1] (Table 11, Sucrose 1% reference, 7 panelists), 24; in assay [1] (Table 11, Sucrose 1.5% reference, 7 panelists), 35; in assay [1] (Table 12, Sucrose 0.5% reference, 7 panelists), 9. Moreover, the “Total of sweetness ranks” value in assay [1] (Table 12, Sucrose 1% reference, 7 panelists) amounted to 17; in assay [1] (Table 12, Sucrose 1.5% reference, 7 panelists), 27; in assay [1] (Table 13, 0.5% Sucrose reference, 9 panelists) it was 15; in assay [1] (Table 13, 1% Sucrose reference, 9 panelists), 31; in assay [1] (Table 13, 1.5% Sucrose reference, 9 panelists), 44. The “Sweetness rank by panelist” value in assay [1] (Table 6, 1.5% Sucrose reference) is 4 and 5; in assay [1] (Table 9, 1% Sucrose reference), 3 and 2 and 4; in assay [1] (Table 9, 1.5% Sucrose reference), 5 and 4; in assay [1] (Table 10, Sucrose 1.5% reference), 5; in assay [1] (Table 11, Sucrose 0.5% reference), 1 and 2; in assay [1] (Table 11, Sucrose 1% reference), 4 and 2 and 3. For the same compound, the “Sweetness rank by panelist” value in assay [1] (Table 11, Sucrose 1.5% reference) was 5; in assay [1] (Table 12, Sucrose 1% reference), 2 and 3; in assay [1] (Table 12, Sucrose 1.5% reference) it was 3 and 4; in assay [1] (Table 13, 1% Sucrose reference) it was 3 and 4 and 2; in assay [1] (Table 13, 1.5% Sucrose reference), 5 and 4.

Source of the values: patent US20200345049A1, “COMPOSITIONS” (Givaudan, S.A., priority 2017, published 2020).
